Source: patent US9610279B2, “Method for induction of a heat shock protein, anti-stress or regulation of an autonomic nerve” (AMINO UP CHEMICAL CO., LTD., priority 2011, dated 2017)

Test system: HSP70
Assay: HSP70 protein expression inducing activity in HeLa cells (ELISA)
Assay type: cell-based, human
Settings: final concentration 1 mg/mL, 24 hours
Protocol: The HSP70 inducing activity of the samples 1, 3, and 4 which were the same ones as used in Example 4 was evaluated by measuring an HSP70 protein expression level. In the same manner as described in Example 4, HeLa cells that had been suspended in DMEM (added with 10% FBS) were seeded in a 12-well plate (100,000 cells/mL/well). […] A part of the cells were then scraped off with a cell scraper, collected into a 1.5 mL sample tube, and subjected to HSP70 protein quantification and total protein quantification. The quantification of HSP70 protein was carried out using HSP70 ELISA kit (product name) (manufactured by Enzo); and the quantification of total protein was carried out using Micro BCA Protein Assay Reagent kit (product name) (manufactured by PIERCE Biotechnology). With regard to the remaining cells, an effect on cell proliferation was evaluated by 3-(4,5-dimethyl […])-2,5-diphenyltetrazalium bromide (MTT) method. […]

For `O=Cc1ccc(CO)o1` [sample 1, 5-Hydroxymethyl-2-furaldehyde], the “increased HSP70 protein expression as compared with the control” value was “about 1.3 fold”.
